Tested on: HMG-CoA reductase
Assay: HMG-CoA Reductase Inhibition Assay (in vitro)
Assay type: biochemical, rat
Details: relative to compactin, arbitrarily assigned a value of 100; IC50 compared with that of compactin determined simultaneously; tested as sodium salt of dihydroxy acid form
Protocol: The intrinsic HMG-CoA reductase inhibition activity of the claimed compounds is measured in the in vitro protocol published in J. Med. Chem., 28, P. 347-358 (1985) and described below:
Isolation of HMG-CoA Reductase. Male Holtzman Sprague-Dawley rate (225-250 g) were kept on reversed lighting and fed Purina rat chow containing 3% cholestyramine for 7 days preceding their sacrifice by CO2 asphyxiation. Livers were removed 6 hours into the dark cycle and used immediately to prepare microsomes. […]
Test compounds or compactin (after first being converted to the sodium salt of their dihydroxy acid form in situ by addition of 1 N NaOH (1 equiv)) were added to the assay system in 10-μL volumes at multiconcentration levels. […] Five milliliters of Aquasol-2 (New England Nuclear) was added to each vial, and radioactivity was measured in a Packard Tri Carb Prias scintillation counter. IC50 values were determined by plotting percentage inhibition against test compounds concentration and fitting a straight line to the resulting data by using the least-squares method. For estimation of relative inhibitory potencies, compactin was assigned a value of 100 and the IC50 value of the test compound was compared with that of compactin determined simultaneously.

| Substance | Relative Potency |
| --- | --- |
| 6(R)-[2-8(S)-(1-Ethoxycarbonylcyclobutanecarbonyloxy)-2(S),6(R)-dimethyl-1,2,6,7,8,8a-(R)-hexahydronaphthyl-1(S)]ethyl]-4(R)-hydroxy-3,4,5,6-tetrahydro-2H-pyrane-2-one | 65 |
| 6(R)-[2-[8(S)-(1-Ethoxycarbonylcyclopropanecarbonyloxy)-2(S),6(R)-dimethyl-1,2,6,7,8,8a (R)-hexahydronaphthyl-1(S)]ethyl]-4(R)-hydroxy-3,4,5,6-tetrahydro-2H-pyran-2-one | 11 |

Source: patent US4876279A, “Antihypercholesterolemic compounds” (Merck & Co., Inc., priority 1988, dated 1989)
